Results taken from patent US10702571B2, “Materials for cathepsin B enhancement and methods of use” (The University of North Carolina at Pembroke, priority 2015, dated 2020).
Where a SMILES comes first, the peptide text is derived from it. The star is where a group is joined. Cbz = O=C(OCc1ccccc1)*

How the values were obtained:
[1] = system: 30-kDa active form of cathepsin B (CatB-30); assay: Hippocampal slice cultures treated for two days, immunoblot for active cathepsin B; type: cell-based, rodent; conditions: for levels of cathepsin B (summary in words) / effect of the cathepsin B positive modulator PADK in combination with flavonol (summary in words): summary in the discussion; for increase in CatB-30 by flavonol alone: 5 μM flavonol alone for 2 days; for increase in cathepsin B (CatB-30): vs non-treated slices, statistically significant
Procedure: FIG. 1. Cathepsin B positive modulation by flavonols—members of the flavonoid class of polyphenolic compounds. Flavonols of quercetin (Q), fisetin (F), and myricetin (M) were applied daily to rodent hippocampal slice cultures. After two (2) days, non-treated (NT) and treated slices were harvested, homogenates were prepared, and equal protein aliquots were assessed by immunoblot to label the 30-kDa active form of cathepsin B (CatB-30). […] FIG. 2. Cathepsin B positive modulation by Z-Phe-Pro-OH. The compound Z-Phe-Pro-OH was applied to rodent hippocampal slice cultures for two (2) days. […] FIG. 3. Quercetin enhances the effect of the cathepsin B positive modulator Z-Phe-Ala-diazomethylketone (PADK). Quercetin (Q) at 5 μM was added to the daily PADK treatments of rodent hippocampal slice cultures. After two (2) days, non-treated (NT) and treated slices were harvested, homogenates were prepared, and equal protein aliquots were assessed by immunoblot to label the active form of cathepsin B (CatB-30). Paired, two-tailed t-test among distinct immunoblots found a statistically significant enhancement of the PADK effect by quercetin (p=0.0167; pairing was effective: p=0.0014). An enhancement of 60-70% occurred, whereas 5 μM quercetin alone for 2 days caused only a 21% increase in CatB-30. FIG. 4. Fisetin and myricetin enhance the cathepsin B positive modulation produced by 10 μM Z-Phe-Ala-diazomethylketone (PADK). Fisetin at 5 μM (top graph) or myricetin at 5 μM (bottom graph) were added to the two daily PADK treatments of rodent hippocampal slice cultures. The non-treated (NT) and treated slices were harvested, homogenates were prepared, and equal protein aliquots were assessed by immunoblot to label the active form of cathepsin B (CatB-30). […] An enhancement of 95-140% was produced by fisetin, whereas 5 μM fisetin alone for two (2) days caused only a 40% increase in CatB-30. FIG. 5. Dose-dependent enhancement of the PADK effect on CatB by flavonols. Quercetin (Q), fisetin (F), and myricetin (M) at 5-10 μM were applied daily to rodent hippocampal slice cultures that were also treated with 3 μM PADK (top graph) or 10 μM PADK (bottom graph). After two (2) days, non-treated (NT) and treated slices were harvested, homogenates were prepared, and equal protein aliquots were assessed by immunoblot to label the 30-kDa active form of cathepsin B (CatB-30). […] The 10 μM PADK slices indicate that each flavonol at the lower concentration has an enhancing effect, but the effect is eliminated or reduced when the flavonol concentration is doubled. As described in FIG. 1, flavonols such as quercetin (Q), fisetin (F), and myricetin (M) were applied daily to rodent hippocampal slice cultures. After two (2) days, non-treated (NT) and treated slices were harvested, homogenates were prepared, and equal protein aliquots were assessed by immunoblot to label the 30-kDa active form of cathepsin B (CatB-30). As described in FIG. 2, the compound of Z-Phe-Pro-OH was applied to rodent hippocampal slice cultures for two (2) days. As described in FIG. 3, the flavonol of quercetin (Q) was added at 5 μM to the daily PADK treatments of rodent hippocampal slice cultures. After two (2) days, non-treated (NT) and treated slices were harvested, homogenates were prepared, and equal protein aliquots were assessed by immunoblot to label the active form of cathepsin B (CatB-30). As described in FIG. 4, the flavonols of fisetin at 5 μM (top graph of FIG. 4) or myricetin at 5 μM (bottom graph of FIG. 4) were added to the two daily PADK treatments of rodent hippocampal slice cultures. The non-treated (NT) and treated slices were harvested, homogenates were prepared, and equal protein aliquots were assessed by immunoblot to label the active form of cathepsin B (CatB-30). As described in FIG. 5, the flavonols of quercetin (Q), fisetin (F), and myricetin (M) at 5-10 μM were applied daily to rodent hippocampal slice cultures that were also treated with 3 μM PADK (top graph) or 10 μM PADK (bottom graph). […]

CatB-30 = assay: Oral dosing in peanut butter pellets to middle-aged mice, dissected hippocampi: CatB-30; type: in vivo; conditions: oral twice daily for 11 days, hippocampus, vs control compound
Procedure: (§1) Compounds in peanut butter pellets were administered to middle-aged mice orally twice daily for 11 days, then dissected hippocampi were compared to control mice that received the same oral dosing with control compound.

synaptic marker GluR1 = assay: Oral dosing in peanut butter pellets to middle-aged mice, dissected hippocampi: synaptic marker GluR1; type: in vivo; conditions: oral twice daily for 11 days, hippocampus, vs control compound
Procedure: as §1

[2] = flavonol at 5 and 10 μM daily with 3 μM PADK, two days

| Structure (SMILES) | levels of cathepsin B (summary in words) [1] | enhancement of the PADK effect on CatB-30 ([1]; 5 μM fisetin added to two daily treatments with 10 μM PADK) | increase in CatB-30 by flavonol alone [1] | increase in cathepsin B (CatB-30) ([1]; 5-30 μM fisetin applied daily, two days) | enhancement of the PADK effect on CatB-30 (in words) [1, 2] | effect of the cathepsin B positive modulator PADK in combination with flavonol (summary in words) [1] | enhancement of the PADK effect on CatB-30 (in words) ([1]; 5 μM myricetin added to two daily treatments with 10 μM PADK, one-tailed p=0.033) | enhancement of the PADK effect on CatB-30 ([1]; 5 μM quercetin added to the daily PADK treatments, two days) | increase in cathepsin B (CatB-30) ([1]; 5-20 μM quercetin applied daily, two days) | CatB-30 in female mice (CatB-30; female middle-aged mice) | CatB-30 in male mice (CatB-30; male middle-aged mice) | synaptic marker GluR1 (synaptic marker GluR1) |
| --- | --- | --- | --- | --- | --- | --- | --- | --- | --- | --- | --- | --- |
| O=C(N[C@@H](Cc1ccccc1)C(=O)N1CCC[C@H]1C(=O)O)OCc1ccccc1 [Z-Phe-Pro-OH, N-carbobenzoxy-L-phenylalanyl-L-proline] (Cbz-Phe-Pro-OH) | increase levels of cathepsin B | – | – | – | – | – | – | – | – | – | – | – |
| O=c1c(O)c(-c2ccc(O)c(O)c2)oc2cc(O)ccc12 [fisetin] | increase levels of cathepsin B | 95-140% | 40% | 1.65 fold | only the higher 10 μM concentration of fisetin enhanced the effect | enhance the effect | – | – | – | – | – | – |
| O=c1c(O)c(-c2cc(O)c(O)c(O)c2)oc2cc(O)cc(O)c12 [myricetin] | increase levels of cathepsin B | – | – | – | no enhancing effect at either concentration | enhance the effect | smaller enhancement | – | – | – | – | – |
| O=c1c(O)c(-c2ccc(O)c(O)c2)oc2cc(O)cc(O)c12 [quercetin] | increase levels of cathepsin B | – | 21% | – | both 5 and 10 μM quercetin enhanced the PADK effect | enhance the effect | – | 60-70% | 1.96 fold | increased CatB-30 in female mice | increased CatB-30 in male mice | enhanced synaptic marker GluR1 |
